Assay results: PubChem BioAssay AID248 (DTP/NCI, 2004)
“And” between values parts separate entries of the source, which are not always exact repeats. Identical values can stand only once. Toxic doses and inconclusive results are not listed. Cut-off read from the data, not from the text of the source: active = T/C of 150% or more; inactive = T/C below 125%. Peptide text beside a SMILES is read from it. * marks the point of attachment. Cbz = O=C(OCc1ccccc1)*; Bn = c1ccc(C*)cc1

System: L1210 leukemia ip in BDF1 mice, survival T/C
Assay: NCI In Vivo Anticancer Drug Screen. Data for tumor model L1210 Leukemia (intraperitoneal) in B6D2F1 (BDF1) mice
Details: endpoint: mean survival time, higher = longer survival
Procedure, shortened: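 Tumor cells were implanted, animals were treated, and survival was followed. The result divides the treated measurement by the vehicle-control measurement.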

[1] = dose: 100.0 mg/kg/injection, schedule: Q01DX009 (ip), vehicle: saline with Tween-80
[2] = dose: 100.0 mg/kg/injection, schedule: Q04DX003 (ip), vehicle: saline with Tween-80
[3] = dose: 200.0 mg/kg/injection, schedule: Q01DX009 (ip), vehicle: saline with Tween-80
[4] = dose: 200.0 mg/kg/injection, schedule: Q04DX003 (ip), vehicle: saline with Tween-80
[5] = dose: 400.0 mg/kg/injection, schedule: Q04DX003 (ip), vehicle: saline with Tween-80
[6] = dose: 100.0 mg/kg/injection, schedule: Q01DX009 (ip), vehicle: Klucel (hydroxypropylcellulose) (HPC)
[7] = dose: 100.0 mg/kg/injection, schedule: Q04DX003 (ip), vehicle: Klucel (hydroxypropylcellulose) (HPC)
[8] = dose: 200.0 mg/kg/injection, schedule: Q01DX009 (ip), vehicle: Klucel (hydroxypropylcellulose) (HPC)
[9] = dose: 200.0 mg/kg/injection, schedule: Q04DX003 (ip), vehicle: Klucel (hydroxypropylcellulose) (HPC)
[10] = dose: 400.0 mg/kg/injection, schedule: Q04DX003 (ip), vehicle: Klucel (hydroxypropylcellulose) (HPC)
[11] = dose: 100.0 mg/kg/injection, schedule: Q01DX001 (ip), vehicle: saline
[12] = dose: 200.0 mg/kg/injection, schedule: Q01DX001 (ip), vehicle: saline
[13] = dose: 75.0 mg/kg/injection, schedule: Q01DX001 (ip), vehicle: acetone
[14] = dose: 150.0 mg/kg/injection, schedule: Q01DX001 (ip), vehicle: acetone
[15] = dose: 100.0 mg/kg/injection, schedule: Q01DX001 (ip), vehicle: carboxymethylcellulose (CMC)
[16] = dose: 200.0 mg/kg/injection, schedule: Q01DX001 (ip), vehicle: carboxymethylcellulose (CMC)
[17] = dose: 400.0 mg/kg/injection, schedule: Q01DX001 (ip), vehicle: carboxymethylcellulose (CMC)
[18] = dose: 400.0 mg/kg/injection, schedule: Q01DX009 (ip), vehicle: Klucel (hydroxypropylcellulose) (HPC)

Measured: T/C

CC(=N/N(C)c1ccccc1)/C(C)=N/N(C)c1ccccc1
inactive: dose: 5.0 mg/kg/injection, schedule: Q01DX001 (ip), vehicle: other 96 % of control | dose: 10.0 mg/kg/injection, schedule: Q01DX001 (ip), vehicle: other 102 % of control | dose: 20.0 mg/kg/injection, schedule: Q01DX001 (ip), vehicle: other 100 % of control | dose: 40.0 mg/kg/injection, schedule: Q01DX001 (ip), vehicle: other 100 % of control | dose: 80.0 mg/kg/injection, schedule: Q01DX001 (ip), vehicle: other 93 % of control

Cc1cccc(SC(=O)Cc2ccc([N+](=O)[O-])cc2)c1
inactive: [1] 91 % of control | [2] 109 % of control | [3] 96 % of control | [4] 102 % of control | [5] 119 % of control

Cn1c(=O)c2[nH]c(Br)nc2n(C)c1=O
inactive: [6] 90 % of control | [7] 98 % of control | [8] 93 % of control | [9] 111 % of control | [10] 106 % of control

CCCCCC1OC1C/C=C/CCCCCCCC(=O)OCC(COC(=O)CCCCCCC/C=C/CC1OC1CCCCC)OC(=O)CCCCCCC/C=C/CC1OC1CCCCC (centres undefined)
inactive: [11] 109 % of control | [12] 95 % of control | dose: 400.0 mg/kg/injection, schedule: Q01DX001 (ip), vehicle: saline 97 % of control

Cc1ccc(C)c(C(O)C(=O)O)c1 (centres undefined)
inactive: [13] 101 % of control | [14] 98 % of control | dose: 300.0 mg/kg/injection, schedule: Q01DX001 (ip), vehicle: acetone 95 % of control

COC(=O)C(NC(=O)C(CSCc1ccccc1)NC(=O)OCc1ccccc1)C(C)C (centres undefined) (Cbz-Cys(Bn)-Val-OMe; configuration not given here)
inactive: [7] 95 % of control | [9] 97 % of control | [10] 95 % of control

CCC(COC(=O)c1ccccc1)(COC(=O)c1ccccc1)[N+](=O)[O-]
inactive: dose: 100.0 mg/kg/injection, schedule: Q01DX001 (ip), vehicle: Klucel (hydroxypropylcellulose) (HPC) 105 % of control | dose: 200.0 mg/kg/injection, schedule: Q01DX001 (ip), vehicle: Klucel (hydroxypropylcellulose) (HPC) 95 % of control | dose: 400.0 mg/kg/injection, schedule: Q01DX001 (ip), vehicle: Klucel (hydroxypropylcellulose) (HPC) 108 % of control

CCC(/C=C\C(C)C1CCC2C3CC=C4CC(O)CCC4(C)C3CCC12C)C(C)C (centres undefined)
inactive: dose: 75.0 mg/kg/injection, schedule: Q01DX009 (sc), vehicle: steriod suspending solution 94 % of control | [15] 89 % of control | dose: 100.0 mg/kg/injection, schedule: Q04DX003 (sc), vehicle: steriod suspending solution 97 % of control | dose: 150.0 mg/kg/injection, schedule: Q01DX009 (sc), vehicle: steriod suspending solution 98 % of control | [16] 89 % of control | dose: 200.0 mg/kg/injection, schedule: Q04DX003 (sc), vehicle: steriod suspending solution 100 % of control | dose: 300.0 mg/kg/injection, schedule: Q01DX009 (sc), vehicle: steriod suspending solution 97 % of control | [17] 86 % of control | dose: 400.0 mg/kg/injection, schedule: Q04DX003 (sc), vehicle: steriod suspending solution 95 % of control

CC(COC(=O)c1ccccc1)(COC(=O)c1ccccc1)COC(=O)c1ccccc1
inactive: [6] 96 % of control | [7] 113 % of control | [8] 104 % of control | [9] 99 % of control | [18] 107 % of control | [10] 96 % of control

O=C(Nc1cccc(F)c1)N(Cc1ccccc1)c1ccccc1
inactive: [1] 91 % of control | [3] 91 % of control | dose: 400.0 mg/kg/injection, schedule: Q01DX009 (ip), vehicle: saline with Tween-80 98 % of control

O=C(O)c1cccc(C(=O)O)n1
inactive: [13] 98 % of control | [14] 97 % of control

[Cl][Pb]([Cl])([c]1ccccc1)[c]1ccccc1
inactive: dose: 12.5 mg/kg/injection, schedule: Q04DX002 (ip), vehicle: Klucel (hydroxypropylcellulose) (HPC) 88 % of control | dose: 25.0 mg/kg/injection, schedule: Q04DX002 (ip), vehicle: Klucel (hydroxypropylcellulose) (HPC) 88 % of control | dose: 50.0 mg/kg/injection, schedule: Q04DX002 (ip), vehicle: Klucel (hydroxypropylcellulose) (HPC) 91 % of control

C[n+]1ccc(Nc2ccc(NC(=O)c3ccc(N)cc3[N+](=O)[O-])cc2)cc1
inactive: dose: 25.0 mg/kg/injection, schedule: Q01DX001 (ip), vehicle: saline with Tween-80 93 % of control and 107 % of control | dose: 50.0 mg/kg/injection, schedule: Q01DX001 (ip), vehicle: saline with Tween-80 97 % of control | dose: 100.0 mg/kg/injection, schedule: Q04DX002 (ip), vehicle: saline with Tween-80 108 % of control and 117 % of control | dose: 200.0 mg/kg/injection, schedule: Q04DX002 (ip), vehicle: saline with Tween-80 94 % of control and 101 % of control | dose: 400.0 mg/kg/injection, schedule: Q01DX001 (ip), vehicle: saline with Tween-80 104 % of control and 91 % of control | dose: 400.0 mg/kg/injection, schedule: Q04DX002 (ip), vehicle: saline with Tween-80 103 % of control and 114 % of control

Cn1c(C[N+](C)(C)C)cc2ccccc21
inactive: [2] 104 % of control | [4] 96 % of control

CCOC(=O)CCC(NC(=O)c1ccc(N(C)C(=O)OCc2ccccc2)cc1)C(=O)OCC (centres undefined)
inactive: [16] 100 % of control | [17] 94 % of control

NNS(=O)(=O)c1ccc(N=Nc2ccccc2)cc1
inactive: [2] 90 % of control | [4] 93 % of control | [5] 97 % of control

CCOC(=O)/C=C/c1cccc(O)c1
inactive: dose: 100.0 mg/kg/injection, schedule: Q01DX001 (ip), vehicle: gum acacia 106 % of control | dose: 200.0 mg/kg/injection, schedule: Q01DX001 (ip), vehicle: gum acacia 110 % of control | dose: 400.0 mg/kg/injection, schedule: Q01DX001 (ip), vehicle: gum acacia 97 % of control

CCOC(=O)c1oc2cc(O)cc(C)c2c1C
inactive: dose: 50.0 mg/kg/injection, schedule: Q01DX001 (ip), vehicle: carboxymethylcellulose (CMC) 97 % of control | [15] 100 % of control | [16] 94 % of control | [17] 94 % of control

Cc1cnc(NC#N)nc1-c1ccccc1O
inactive: dose: 100.0 mg/kg/injection, schedule: Q04DX002 (ip), vehicle: Klucel (hydroxypropylcellulose) (HPC) 95 % of control | dose: 200.0 mg/kg/injection, schedule: Q04DX002 (ip), vehicle: Klucel (hydroxypropylcellulose) (HPC) 98 % of control | dose: 400.0 mg/kg/injection, schedule: Q04DX002 (ip), vehicle: Klucel (hydroxypropylcellulose) (HPC) 95 % of control

c1cncc(C2OCCO2)c1
inactive: dose: 100.0 mg/kg/injection, schedule: Q04DX003 (ip), vehicle: saline 98 % of control | dose: 200.0 mg/kg/injection, schedule: Q04DX003 (ip), vehicle: saline 92 % of control | dose: 400.0 mg/kg/injection, schedule: Q04DX003 (ip), vehicle: saline 105 % of control

CCCCCSP(=O)(SCCCCC)c1ccccc1
inactive: [6] 91 % of control | [8] 94 % of control

CC1CN=C(c2ccc(NC(=O)Nc3ccc(NC(=O)c4ccc(C5=NCC(C)N5)cc4)cc3)cc2)N1 (centres undefined)
inactive: dose: 62.5 mg/kg/injection, schedule: Q01DX Z (oral), vehicle: water 97 % of control | dose: 125.0 mg/kg/injection, schedule: Q01DX Z (oral), vehicle: water 101 % of control | dose: 250.0 mg/kg/injection, schedule: Q01DX Z (oral), vehicle: water 100 % of control | dose: 500.0 mg/kg/injection, schedule: Q01DX Z (oral), vehicle: water 105 % of control

O=[N+]([O-])c1ccc(C(Cl)C2(Br)C=c3ccccc3=C2)cc1 (centres undefined)
inactive: [6] 103 % of control | [7] 105 % of control | [8] 98 % of control | [9] 94 % of control | [18] 95 % of control | [10] 97 % of control

CCN(CC)CCC#N
inactive: dose: 50.0 mg/kg/injection, schedule: Q01DX001 (ip), vehicle: saline 94 % of control | [11] 94 % of control | [12] 100 % of control

O=[N+]([O-])Cc1c2ccccc2nc2ccccc12
inactive: dose: 50.0 mg/kg/injection, schedule: Q01DX009 (ip), vehicle: saline with Tween-80 87 % of control | [1] 87 % of control | [3] 87 % of control
